Results as given in patent US20260327193A1, “INHIBITORS OF PLASMA KALLIKREIN” (Rezolute, Inc., priority 2022, published 2026).

What was measured:
[1] = Caco-2 permeability assay; type: in vitro ADME; details: human, 10 μM test compound, pH 7.4, 37° C., 120 minutes, direction of the value not given, read-out: Caco-2 Perm
Protocol: Permeability Assay. A permeability study was conducted using Caco-2 cells (ECACC Cat. no. 09042001) seeded on cell inserts plate (Millicell, Cat #PSHT010R^5) at a density of 80,000 cells per well, and the cells were maintained for 18-21 days in culture medium (1×DMEM with 10% FBS, 0.1 mg/mL Penicillin/Streptomycin). The culture medium was changed every alternate day. Prior to the experiments, the integrity of the cellular monolayer was evaluated by measuring the TEER value using a volt ohm meter and STX100C96 electrode. Only monolayers with TEER values greater than 800 ohm·cm^2 in buffer after the first wash were used.
An assay buffer (HBSS with Ca+2 and Mg+2 buffered with 10 mM HEPES and 25 mM D-Glucose, pH-7.4) was used on apical side as well as on basolateral side.
An intermediate stock solution of a test compound was prepared in DMSO at a concentration of 1 mM in DMSO. This stock solution was spiked in the assay buffer to achieve a target test compound concentration of 10 μM. The organic content of final drug preparation was 1.0% v/v. The bidirectional permeability experiment was done in singlet and the sample analysis was done in duplicate.
The cultured cell monolayer was washed twice with assay buffer (0.4 mL and 0.8 mL was added to the apical and basolateral sides, respectively, of the culture plate), and then buffers from both compartments were discarded.
For the apical to basal (AP>BL) experiment, aliquots of 0.4 mL donor solution (assay buffer, pH 7.4 containing test compound) and 0.8 mL of receiver solutions (assay buffer, pH 7.4, only) were added to the apical and basolateral compartments, respectively. For the basal to apical (BL>AP) experiment, aliquots of 0.8 mL donor solution (assay buffer pH-7.4 containing test compound) and 0.4 mL of receiver solutions (assay buffer, pH-7.4) were added to the basolateral and apical compartments, respectively. The plate was then kept in an incubator at 37° C. for 120 minutes.
Control experiments with Propranolol (High Permeability), Atenolol (Low Permeability), Digoxin (High Efflux-Pgp substrate), and Digoxin+Verapamil (Pgp Inhibitor) in both directions (AP>BL and BL>AP) were performed in separate wells on the same experiment day.
After the completion of the transport experiment, the integrity of the cell monolayer was evaluated by measuring the Lucifer Yellow (LY) rejection. To do this, 400 μL of 10 μM LY was added to each well of the filter plate and incubated for 1 hour at 37° C. Subsequently, the samples were collected from the basolateral compartments, and the LY fluorescence was measured using an excitation wavelength of 485 nm and an emission wavelength of 530 nm. The percent LY rejection across the cell monolayer was calculated by measuring fluorescence in the receiver plate (basolateral compartment) compared to theoretical equilibrium standard.
The study samples (collected from apical and basolateral compartments after 120 min incubation) were analyzed by LCMS/MS, following which the Papp of the compound(s) was calculated in both apical to basal and basal to apical directions. Papp=([DBL]×VBL)/(A×t×[DAP]) where: [DBL]=final drug concentration on the basolateral side, VBL=volume of the basolateral compartment, A=surface area of the cell culture, t=total incubation time, and [DAP]=initial drug concentration on the apical side.

Plasma Kallikrein [2] = biological target: T1, Plasma Kallikrein (Homo sapiens, UniProt P03952); experiment: Plasma kallikrein activity in pooled human plasma; type: biochemical; design: Plasma Kallikrein activity was also measured in pooled human plasma; from tissue; host or cells: pooled human plasma; details: Z-FR-AMC substrate, activated with 10% Actin FS solution, 10 minutes, read-out: Pooled Human Plasma PKal IC50
Protocol: (§1) Plasma kallikrein protease inhibition assay. Two methods for determining the IC50 of a test compound against Plasma Kallikrein are provided.
Second, Plasma Kallikrein activity was also measured in pooled human plasma. First, a 10% Actin FS solution was prepared in assay buffer. Each test compound was dissolved in DMSO and delivered to the reaction mixture along with Z-FR-AMC substrate and pooled human plasma. The multi-well reaction plate was incubated for five minutes at room temperature. To initiate the reaction, the 10% Actin FS solution was added to each well, and kinetic measurements were taken at Ex/Em at 355/460 nm. The fluorescence signal was recorded every 30 seconds for a total of 10 minutes.

Plasma Kallikrein [3] = biological target: T1, Plasma Kallikrein; experiment: Plasma kallikrein protease inhibition assay, purified enzyme; type: biochemical; design: NS0-derived Gly20-Ala638, with a C-terminal 60-His tag; 60-His (so in the source) (C); purchased R&D Systems 2497-SE; host or cells: Mouse myeloma cell line, NS0; details: 10 μM Z-FR-AMC substrate, 20-minute pre-incubation, pH 8.0/8.5, room temperature, read-out: Purified PKal IC50
Protocol: as §1
In the first method was used a reaction buffer composed of 25 mM Tris-HCl (pH 8.0), 100 mM NaCl (pH 8.5), 0.01% Brij35, and 1% DMSO (final). The enzyme used was Plasma Kallikrein (R&D Systems Cat #2497-SE; Recombinant Human Plasma Kallikrein, expressed in Mouse myeloma cell line, NS0-derived Gly20-Ala638, with a C-terminal 60-His tag. MW=70 kDa).
The enzyme was activated by dilution to 200 μg/mL in activation buffer (100 mM Tris, 10 mM CaCl2, 150 mM NaCl, pH 7.5 (TCN), and then combined with an equal volume of 20 μg/mL thermolysin to form a reaction buffer. Each test compound was then dissolved in DMSO and delivered into the reaction buffer. The reaction was initiated by delivering a substrate solution containing 10 μM Z-FR-AMC (Enzo Cat #P-139; AMC: 7-Amino-4-methylcoumarin) into the reaction well after a 20-minute pre-incubation period.
Measurement was conducted with En Vision (PE) with excitation and emission wavelengths of 355 nm and 460 nm, respectively. […]. The enzyme activities were monitored every 5 minutes as a time-course measurement of the increase in signal from fluorescently labeled peptide substrate for 120 minutes at room temperature.
Data was analyzed by taking slope*(signal/time) of the linear portion of measurements. Slope was calculated using Excel, and curve fits were performed using Prism software.

T1 sequence (P03952 391-638 limits assumed): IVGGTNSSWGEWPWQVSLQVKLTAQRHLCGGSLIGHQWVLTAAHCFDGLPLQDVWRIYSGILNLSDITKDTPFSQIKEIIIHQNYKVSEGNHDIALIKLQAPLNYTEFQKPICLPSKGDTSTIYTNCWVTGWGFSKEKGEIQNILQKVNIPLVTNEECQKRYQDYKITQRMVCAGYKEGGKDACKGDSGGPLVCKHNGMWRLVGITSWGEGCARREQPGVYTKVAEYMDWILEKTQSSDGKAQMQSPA
T1 sequence (P03952 20-390 partner limits assumed): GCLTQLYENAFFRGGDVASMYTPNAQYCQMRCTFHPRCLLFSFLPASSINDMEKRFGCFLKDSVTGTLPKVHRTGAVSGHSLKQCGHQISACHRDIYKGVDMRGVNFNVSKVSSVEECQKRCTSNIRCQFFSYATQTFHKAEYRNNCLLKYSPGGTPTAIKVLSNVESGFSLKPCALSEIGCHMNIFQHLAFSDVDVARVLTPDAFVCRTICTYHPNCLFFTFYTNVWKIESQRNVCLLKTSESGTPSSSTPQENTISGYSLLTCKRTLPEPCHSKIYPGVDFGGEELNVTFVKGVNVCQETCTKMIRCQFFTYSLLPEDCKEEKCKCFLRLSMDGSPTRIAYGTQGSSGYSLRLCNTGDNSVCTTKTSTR

SMILES	Papp at 2 h, 10 µM [1] [×10⁻⁶ cm/s]	IC50 (Plasma Kallikrein [2]) [nM]	IC50 (Plasma Kallikrein [3]) [nM]
CNC(=O)Cc1ccc(Cn2cc(C(=O)NCc3ccc(C(=N)N)cc3)cn2)cc1 [Example 19, N-(4-carbamimidoylbenzyl)-1-(4-(2-(methylamino)-2-oxoethyl)benzyl)-1H-pyrazole-4-carboxamide]	< 2	< 100	< 1
N#CCc1ccc(Cn2cc(C(=O)NCc3ccc(C(=N)N)cc3)cn2)cc1 [Example 1, N-(4-carbamimidoylbenzyl)-1-(4-(cyanomethyl)benzyl)-1H-pyrazole-4-carboxamide]	< 2	< 100	< 1
N#Cc1ccn(Cc2ccc(Cn3cc(C(=O)NCc4ccc(C(=N)N)cc4)cn3)cc2)c1 [Example 26, N-(4-carbamimidoylbenzyl)-1-(4-((3-cyano-1H-pyrrol-1-yl)methyl)benzyl)-1H-pyrazole-4-carboxamide]	< 2	< 100	< 1
N#Cc1cccc(Cc2ccc(Cn3cc(C(=O)NCc4ccc(C(=N)N)cc4F)cn3)cc2)c1 [Example 50, N-(4-carbamimidoyl-2-fluorobenzyl)-1-(4-(3-cyanobenzyl)benzyl)-1H-pyrazole-4-carboxamide]	< 2	< 100	< 1
N#Cc1cccc(Cc2ccc(Cn3cc(C(=O)NCc4ccc(C(=N)N)cc4)cn3)cc2)c1 [Example 28, N-(4-carbamimidoylbenzyl)-1-(4-(3-cyanobenzyl)benzyl)-1H-pyrazole-4-carboxamide]	< 2	< 100	< 1
COCCc1ccc(Cn2ncc(C(=O)NCc3ccc(C(=N)N)cc3)c2COC)cc1 [Example 87, N-(4-carbamimidoylbenzyl)-1-(4-(2-methoxyethyl)benzyl)-5-(methoxymethyl)-1H-pyrazole-4-carboxamide]	< 2	< 100	10 to 100
CC(C)(C#N)c1ccc(Cn2cc(C(=O)NCc3ccc(C(=N)N)cc3F)cn2)cc1 [Example 45, N-(4-carbamimidoyl-2-fluorobenzyl)-1-(4-(2-cyanopropan-2-yl)benzyl)-1H-pyrazole-4-carboxamide]	2 to 10	< 100	< 1
COCCc1ccc(Cn2cc(C(=O)NCc3ccc(C(=N)N)cc3)cn2)cc1 [Example 15, N-(4-carbamimidoylbenzyl)-1-(4-(2-methoxyethyl)benzyl)-1H-pyrazole-4-carboxamide]	2 to 10	< 100	< 1
CC(C)(C#N)c1ccc(Cn2cnc(C(=O)NCc3ccc(C(=N)N)cc3)c2)cc1 [Example 8, N-(4-carbamimidoylbenzyl)-1-(4-(2-cyanopropan-2-yl)benzyl)-1H-imidazole-4-carboxamide]	< 2	–	1 to 10
N#CCCc1ccc(Cn2cnc(C(=O)NCc3ccc(C(=N)N)cc3)c2)cc1 [Example 4, N-(4-carbamimidoylbenzyl)-1-(4-(2-cyanoethyl)benzyl)-1H-imidazole-4-carboxamide]	< 2	–	< 1
N#Cc1cccc(Cc2ccc(Cn3cc(C(=O)NCc4ccc(C(=N)N)c(F)c4)cn3)cc2)c1 [Example 49, N-(4-carbamimidoyl-3-fluorobenzyl)-1-(4-(3-cyanobenzyl)benzyl)-1H-pyrazole-4-carboxamide]	< 2	100 to 1000	< 1
N=C(N)c1ccc(CNC(=O)c2cnn(Cc3ccc(CC(N)=O)cc3)c2)cc1 [Example 18, 1-(4-(2-amino-2-oxoethyl)benzyl)-N-(4-carbamimidoylbenzyl)-1H-pyrazole-4-carboxamide]	< 2	–	1 to 10
N#CCc1ccc(Cn2cnc(C(=O)NCc3ccc(C(=N)N)cc3)c2)cc1 [Example 9, N-(4-carbamimidoylbenzyl)-1-(4-(cyanomethyl)benzyl)-1H-imidazole-4-carboxamide]	2 to 10	–	1 to 10
N#CCCc1ccc(Cn2cc(C(=O)NCc3ccc(C(=N)N)cc3)cn2)cc1 [Example 3, N-(4-carbamimidoylbenzyl)-1-(4-(2-cyanoethyl)benzyl)-1H-pyrazole-4-carboxamide]	< 2	< 100	< 1
CC(C)(C#N)c1ccc(Cn2cc(C(=O)NCc3ccc(C(=N)N)c(F)c3)cn2)cc1 [Example 43, N-(4-carbamimidoyl-3-fluorobenzyl)-1-(4-(2-cyanopropan-2-yl)benzyl)-1H-pyrazole-4-carboxamide]	< 2	< 100	1 to 10
CC(C)(C#N)c1ccc(Cn2cc(C(=O)NCc3ccc(C(=N)N)cc3)cn2)cc1 [Example 7, N-(4-carbamimidoylbenzyl)-1-(4-(2-cyanopropan-2-yl)benzyl)-1H-pyrazole-4-carboxamide]	< 2	< 100	< 1
CN(C)C(=O)Cc1ccc(Cn2cc(C(=O)NCc3ccc(C(=N)N)cc3)cn2)cc1 [Example 33, N-(4-carbamimidoylbenzyl)-1-(4-(2-(dimethylamino)-2-oxoethyl)benzyl)-1H-pyrazole-4-carboxamide]	< 2	< 100	< 1
COc1cc(CNC(=O)c2cnn(Cc3ccc(C(C)(C)C#N)cc3)c2)cc(F)c1C(=N)N [Example 48, N-(4-carbamimidoyl-3-fluoro-5-methoxybenzyl)-1-(4-(2-cyanopropan-2-yl)benzyl)-1H-pyrazole-4-carboxamide]	< 2	100 to 1000	10 to 100
